Results: patent publication US20230097866A1, “BACTERIAL TOPOISOMERASE INHIBITORS DERIVED FROM ISOMANNIDE” (Ohio State Innovation Foundation, priority 2020, published 2023)
pIC50: −log10 of the molar value. In brackets after ≈: the same amount, converted by molar mass. Read-outs that look alike come from different tables or passages of the source. Marks after values point to notes of the source that are not given here.

Legend:
[1] = test system: S. aureus ATCC 29213; assay: MIC, CLSI broth microdilution, S. aureus ATCC 29213; type: cell-based; details: Staphylococcus aureus
[2] = test system: USA300 isolate of MRSA; assay: MIC, CLSI broth microdilution, USA300 MRSA; type: cell-based; details: Staphylococcus aureus, read-out: MIC USA300
[3] = test system: S. aureus strain isolated from a cystic fibrosis patient; assay: MIC, CLSI broth microdilution, CF isolate; type: cell-based; details: Staphylococcus aureus, read-out: MIC CF isolate
[4] = molecular target: S. aureus DNA gyrase (Staphylococcus aureus, UniProt P20831); assay: Inhibition of DNA gyrase, biochemical assay (Inspiralis)
[5] = molecular target: TopoIV from S. aureus (Staphylococcus aureus, UniProt P0C1U9); assay: biochemical; type: biochemical
[6] = test system: S. aureus ATCC 29213; assay: microbe, parasite or virus in culture; type: cell-based; details: Staphylococcus aureus, ATCC29213, read-out: S. aureus ATCC 29213 MIC (n = 2)
Protocol: In order to determine the spontaneous mutation frequency of investigational agents (Table 4), the MIC was first determined using the agar dilution method as recommended by the Clinical and Laboratory Standards Institute.
Triplicate independent inocula of S. aureus ATCC 29213 were evaluated.

[7] = test system: S. aureus ATCC 29213; type: cell-based, Staphylococcus aureus
[8] = molecular target: hERG (Homo sapiens, UniProt Q12809); assay: hERG IC50, IonWorks Barracuda (Charles River)
Source text: The design of these isomannide-detived NBTIs focused on enhanced polarity and modulation of basicity through the two electronegative oxygen atoms in the linker.

[9] = test system: M. tuberculosis H37Rv; assay: MIC, microbroth dilution, M. tuberculosis H37Rv; type: cell-based; details: Mycobacterium tuberculosis
[10] = test system: M. abscessus 19977; assay: MIC, microbroth dilution, M. abscessus; type: cell-based, Mycobacterium abscessus; details: Mycobacteroides abscessus
Protocol: (§1) MICs were determined against the NTM strains […] avium ATCC 700891 MAC101 and M. abscessus 19977 using the microbroth dilution method. MIC was determined using optical density and a calorimetric growth indicator. For optical density ([…]), the MIC is considered the first concentration to inhibit growth when compared to an untreated growth control. A calorimetric growth indicator (i.e. Alamar Blue) was also added to confirm MIC value by observing color change from […], indicating no active growth.

[11] = test system: M. avium 700891; assay: MIC, microbroth dilution, M. avium; type: cell-based; details: Mycobacterium avium
Protocol: as §1

[12] = test system: M tuberculosis H37Rv in THP-1 macrophages; assay: Ex vivo efficacy against M. tuberculosis in THP-1 macrophages; type: cell-based, Mycobacterium tuberculosis
[13] = test system: Mycobacterium avium complex (ATCC 700891 MAC 101); assay: Ex vivo efficacy against M. avium; type: cell-based; details: concentration for >90% inhibition
Protocol: (§2) Ex vivo efficacy was determined by inhibition of Mycobacterium avium complex (ATCC 700891 MAC 101), and Mycobacterium abscessus (ATCC 19977). Cytotoxicity tests were carried out against three human cell lines, THP-1 (ATCC TIB-202), HepG2 (ATCC HB-8065), and HeLa (ATCC CCL-2). IC50 values were calculated from dose response curves to determine cytotoxicity of test compounds.

[14] = test system: Mycobacterium abscessus (ATCC 19977); assay: Ex vivo efficacy against M. abscessus; type: cell-based; details: concentration for >90% inhibition
Protocol: as §2

[15] = test system: S. aureus ATCC 29213; details: previously published data for 27 and ciprofloxacin; cited from earlier work
[16] = test system: MRSADRL-3161; details: previously published data for 27 and ciprofloxacin; cited from earlier work
[17] = test system: Streptococcus pyogenes LSI-1235; details: previously published data for 27 and ciprofloxacin; cited from earlier work
[18] = test system: Streptococcus pneumoniae LSI-4234; details: penicillin-susceptible strain; previously published data for 27 and ciprofloxacin; cited from earlier work
[19] = test system: Streptococcus pneumoniae LSI-4246; details: penicillin-resistant strain; previously published data for 27 and ciprofloxacin; cited from earlier work
[20] = test system: Enterococcus faecium DRL-4193; details: vancomycin-susceptible strain; previously published data for 27 and ciprofloxacin; cited from earlier work
[21] = test system: Enterococcus faecium LSI-3340; details: vancomycin-resistant strain; previously published data for 27 and ciprofloxacin; cited from earlier work
[22] = test system: Enterococcus faecalis ATCC 29212; details: previously published data for 27 and ciprofloxacin; cited from earlier work
[23] = test system: Escherichia coli ATCC 25922; details: previously published data for 27 and ciprofloxacin; cited from earlier work
[24] = test system: Pseudomonas aeruginosa LSI-2946; details: previously published data for 27 and ciprofloxacin; cited from earlier work
[25] = test system: Acinetobacter baumannii LSI-2957; details: previously published data for 27 and ciprofloxacin; cited from earlier work
[26] = test system: Klebsiella pneumoniae LSI-2999; details: previously published data for 27 and ciprofloxacin; cited from earlier work
[27] = test system: Enterobacter cloacae LSI-2943; details: previously published data for 27 and ciprofloxacin; cited from earlier work
[28] = ATCC29213, read-out: MIC ATCC 29213
[29] = ATCC29213, CLSI broth microdilution, triplicate, read-out: MIC ATCC 29213
[30] = CLSI broth microdilution, ciprofloxacin-resistant MRSA
[31] = S. aureus DNA gyrase, Inspiralis, Ltd., read-out: Gyrase IC50
[32] = S. aureus TopoIV, read-out: TopoIV IC50

Chain of S. aureus DNA gyrase (P0A0K8 whole entry): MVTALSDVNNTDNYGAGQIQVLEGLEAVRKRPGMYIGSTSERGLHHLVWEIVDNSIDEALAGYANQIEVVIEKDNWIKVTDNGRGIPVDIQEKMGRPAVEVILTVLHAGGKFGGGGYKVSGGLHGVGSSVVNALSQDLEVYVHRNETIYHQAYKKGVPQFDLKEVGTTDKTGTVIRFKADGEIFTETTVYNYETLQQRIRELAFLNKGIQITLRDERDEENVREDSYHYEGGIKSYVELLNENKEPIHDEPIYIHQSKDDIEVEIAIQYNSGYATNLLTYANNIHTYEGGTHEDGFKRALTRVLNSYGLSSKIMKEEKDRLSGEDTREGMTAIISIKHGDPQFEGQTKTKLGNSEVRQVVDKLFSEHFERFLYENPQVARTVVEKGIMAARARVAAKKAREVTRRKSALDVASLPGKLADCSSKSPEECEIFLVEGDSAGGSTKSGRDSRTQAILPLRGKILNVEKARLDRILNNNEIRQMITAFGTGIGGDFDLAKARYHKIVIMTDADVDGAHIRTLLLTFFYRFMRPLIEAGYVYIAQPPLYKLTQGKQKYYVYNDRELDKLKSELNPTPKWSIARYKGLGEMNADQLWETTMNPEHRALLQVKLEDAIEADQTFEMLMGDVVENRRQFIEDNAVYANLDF
Chain of S. aureus DNA gyrase (P20831 whole entry): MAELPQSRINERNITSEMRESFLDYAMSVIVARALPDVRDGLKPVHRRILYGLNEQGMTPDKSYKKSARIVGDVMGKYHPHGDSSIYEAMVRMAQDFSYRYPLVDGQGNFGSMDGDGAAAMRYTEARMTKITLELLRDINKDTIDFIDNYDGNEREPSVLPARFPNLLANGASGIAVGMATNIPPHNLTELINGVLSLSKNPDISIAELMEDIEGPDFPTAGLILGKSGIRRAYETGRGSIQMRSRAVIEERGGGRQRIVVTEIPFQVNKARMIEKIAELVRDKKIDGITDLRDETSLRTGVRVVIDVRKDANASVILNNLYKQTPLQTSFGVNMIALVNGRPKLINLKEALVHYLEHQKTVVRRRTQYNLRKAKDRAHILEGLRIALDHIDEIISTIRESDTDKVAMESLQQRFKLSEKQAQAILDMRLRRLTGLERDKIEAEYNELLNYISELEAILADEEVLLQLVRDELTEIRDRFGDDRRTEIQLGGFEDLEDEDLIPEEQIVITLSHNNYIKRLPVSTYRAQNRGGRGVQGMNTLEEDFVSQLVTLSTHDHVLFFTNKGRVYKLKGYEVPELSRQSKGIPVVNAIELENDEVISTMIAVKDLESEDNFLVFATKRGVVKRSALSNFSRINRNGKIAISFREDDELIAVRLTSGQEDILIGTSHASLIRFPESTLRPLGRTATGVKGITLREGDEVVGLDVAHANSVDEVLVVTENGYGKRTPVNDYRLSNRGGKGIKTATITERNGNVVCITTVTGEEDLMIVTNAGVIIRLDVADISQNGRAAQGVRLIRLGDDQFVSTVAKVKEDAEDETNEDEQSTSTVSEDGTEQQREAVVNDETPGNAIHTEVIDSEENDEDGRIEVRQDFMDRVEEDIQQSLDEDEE
Chain of TopoIV from S. aureus (P0C1S7 whole entry): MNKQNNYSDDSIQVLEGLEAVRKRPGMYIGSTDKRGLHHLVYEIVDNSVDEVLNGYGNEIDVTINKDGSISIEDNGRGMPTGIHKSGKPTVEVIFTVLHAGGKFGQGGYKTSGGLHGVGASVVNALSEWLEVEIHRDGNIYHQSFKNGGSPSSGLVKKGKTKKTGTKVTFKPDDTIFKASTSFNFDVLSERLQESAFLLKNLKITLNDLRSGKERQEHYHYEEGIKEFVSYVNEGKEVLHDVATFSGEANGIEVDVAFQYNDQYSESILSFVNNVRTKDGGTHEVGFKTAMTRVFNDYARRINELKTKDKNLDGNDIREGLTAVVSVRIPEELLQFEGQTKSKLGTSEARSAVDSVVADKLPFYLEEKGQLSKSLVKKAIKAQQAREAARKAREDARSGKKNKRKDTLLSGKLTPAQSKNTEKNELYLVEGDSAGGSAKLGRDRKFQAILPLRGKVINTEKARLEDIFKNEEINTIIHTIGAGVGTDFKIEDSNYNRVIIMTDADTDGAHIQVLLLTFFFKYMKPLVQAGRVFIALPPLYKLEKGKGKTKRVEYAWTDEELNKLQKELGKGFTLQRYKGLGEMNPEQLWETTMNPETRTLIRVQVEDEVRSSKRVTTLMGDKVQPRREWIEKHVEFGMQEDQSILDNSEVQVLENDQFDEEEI
Chain of TopoIV from S. aureus (P0C1U9 whole entry): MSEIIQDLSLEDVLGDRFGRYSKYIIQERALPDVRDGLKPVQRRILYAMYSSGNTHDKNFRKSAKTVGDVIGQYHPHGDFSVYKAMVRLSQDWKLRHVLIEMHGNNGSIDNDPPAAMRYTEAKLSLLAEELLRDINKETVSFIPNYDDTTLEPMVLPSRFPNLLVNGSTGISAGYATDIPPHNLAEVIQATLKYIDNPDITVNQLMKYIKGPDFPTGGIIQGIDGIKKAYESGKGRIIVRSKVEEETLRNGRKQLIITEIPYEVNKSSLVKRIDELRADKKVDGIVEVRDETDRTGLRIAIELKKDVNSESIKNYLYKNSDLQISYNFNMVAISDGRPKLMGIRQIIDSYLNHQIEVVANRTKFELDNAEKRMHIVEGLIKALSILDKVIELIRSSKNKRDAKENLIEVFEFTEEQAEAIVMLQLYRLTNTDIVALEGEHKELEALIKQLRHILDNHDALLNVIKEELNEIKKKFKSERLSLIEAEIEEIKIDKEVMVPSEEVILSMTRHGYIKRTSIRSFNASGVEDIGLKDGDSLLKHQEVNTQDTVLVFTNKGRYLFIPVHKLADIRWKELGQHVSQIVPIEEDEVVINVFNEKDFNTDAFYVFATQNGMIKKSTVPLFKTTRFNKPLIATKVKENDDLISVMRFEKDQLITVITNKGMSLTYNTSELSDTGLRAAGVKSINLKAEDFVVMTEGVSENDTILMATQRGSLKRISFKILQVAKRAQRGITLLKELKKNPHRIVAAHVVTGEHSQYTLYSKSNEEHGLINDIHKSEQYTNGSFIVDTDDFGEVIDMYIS
Chain of hERG (Q12809 whole entry): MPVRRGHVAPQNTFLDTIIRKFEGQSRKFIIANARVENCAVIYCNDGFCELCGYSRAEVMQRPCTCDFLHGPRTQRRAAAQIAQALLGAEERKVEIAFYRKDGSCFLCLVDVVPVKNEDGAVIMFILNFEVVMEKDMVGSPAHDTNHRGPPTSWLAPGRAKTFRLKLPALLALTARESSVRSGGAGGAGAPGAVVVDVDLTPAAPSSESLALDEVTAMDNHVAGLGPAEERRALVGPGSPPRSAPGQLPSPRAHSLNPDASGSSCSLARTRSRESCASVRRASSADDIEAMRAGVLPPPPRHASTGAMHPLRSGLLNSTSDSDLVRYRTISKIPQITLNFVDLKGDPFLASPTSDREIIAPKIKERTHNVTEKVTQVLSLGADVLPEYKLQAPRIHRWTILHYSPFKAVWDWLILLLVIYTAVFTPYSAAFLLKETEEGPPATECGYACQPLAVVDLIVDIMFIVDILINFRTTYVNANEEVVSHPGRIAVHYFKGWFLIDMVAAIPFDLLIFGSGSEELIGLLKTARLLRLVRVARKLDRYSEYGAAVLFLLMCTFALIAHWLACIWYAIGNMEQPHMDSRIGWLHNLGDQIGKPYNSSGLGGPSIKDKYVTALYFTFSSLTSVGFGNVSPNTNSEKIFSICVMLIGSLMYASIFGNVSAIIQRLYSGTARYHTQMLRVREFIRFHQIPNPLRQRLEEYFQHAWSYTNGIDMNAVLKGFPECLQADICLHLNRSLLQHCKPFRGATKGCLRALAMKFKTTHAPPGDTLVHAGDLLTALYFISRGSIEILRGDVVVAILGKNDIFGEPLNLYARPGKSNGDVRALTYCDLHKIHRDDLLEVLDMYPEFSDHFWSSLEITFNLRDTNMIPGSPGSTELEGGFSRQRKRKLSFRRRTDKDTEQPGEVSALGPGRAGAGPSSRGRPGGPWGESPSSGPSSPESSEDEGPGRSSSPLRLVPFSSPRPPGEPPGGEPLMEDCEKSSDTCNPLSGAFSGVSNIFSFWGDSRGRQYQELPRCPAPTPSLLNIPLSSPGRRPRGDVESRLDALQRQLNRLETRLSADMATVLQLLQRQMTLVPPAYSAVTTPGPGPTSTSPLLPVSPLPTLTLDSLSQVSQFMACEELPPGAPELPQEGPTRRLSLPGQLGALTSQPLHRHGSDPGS

COc1ccc2ncc(F)c(CC[C@@]3(O)CO[C@@H]4[C@@H](NCc5ccc6c(n5)NC(=O)CO6)CO[C@@H]43)c2n1 [Compound 7, 6-((((3S,3aR,6R,6aS)-6-(2-(3-fluoro-6-methoxy-1,5-tnaphthyriditn-4-yl)ethyl)-6-hydroxyhexahydrofuro[3,2-b]furan-3-yl)amino)methyl)-2H-pyrido[3,2-b][1,4]oxazin-3(4H)-one]
MIC [1, 28]: 2 µg/mL (≈ 3.91 µM) | MIC [2]: 1 to 2 µg/mL (≈ 1.95 to 3.91 µM) | MIC [3]: 2 µg/mL (≈ 3.91 µM) | pIC50 [4]: 6.27 | TopoIV IC50 [5]: No activity

COc1ccc2nccc(CC[C@@]3(O)CO[C@@H]4[C@@H](NCc5ccc6c(c5)OCCO6)CO[C@@H]43)c2c1 [Compound 21, (3R,3aS,6S, 6aR)-6-(((2,3-dihydrobenzo[b][1,4]dioxin-6-yl)methyl)amino)-3-(2-(6-methoxyquinalin-4-yl)ethyl)hexahydrofuro[3,2-b]furan-3-ol]
MIC [1, 29]: 16 to 32 µg/mL (≈ 33.4 to 66.9 µM) | MIC [2, 30]: 16 µg/mL (≈ 33.4 µM) | MIC ([3]; CLSI broth microdilution): 16 µg/mL (≈ 33.4 µM)

COc1ccc2nccc(CC[C@@]3(O)CO[C@@H]4[C@@H](NCc5ccccc5)CO[C@@H]43)c2c1 [Compound 22, (3R,3aS,6S,6aR)-6-(benzylamino)-3-(2-(6-methoxyquinolin-4-yl)ethyl)hexahydrofuro[3,2-b]furan-3-ol]
MIC [1, 29]: > 8 µg/mL | MIC [2, 30]: > 8 µg/mL | MIC ([3]; CLSI broth microdilution): > 8 µg/mL

COc1ccc2nccc(CC[C@@]3(O)CO[C@@H]4[C@@H](NCc5ccc(C)cc5)CO[C@@H]43)c2c1 [Compound 23, (3R,3aS,6S,6aR)-3-(2-(6-methoxyquinolin-4-yl)ethyl)-6-((4-methylbenzyl)amino)hexahydrofuro[3,2-h]furan-3-ol]
MIC [1, 29]: > 8 µg/mL | MIC [2, 30]: > 8 µg/mL | MIC ([3]; CLSI broth microdilution): > 8 µg/mL

COc1ccc2ncc(F)c(CC[C@@]3(O)CO[C@@H]4[C@@H](NCc5ccc6c(c5)OCCO6)CO[C@@H]43)c2n1 [Compound 24, (3R,3aS,6S, 6aR)-6-(((2,3-dihydrobenzo[b][1,4]dioxin-6-yl)methyl)amino)-3-(2-(3-fluoro-6-methoxy-1,5-naphthyridin-4-yl)ethyl)hexahydrofuro[3,2-b]furan-3-ol]
MIC [1, 28]: 0.5 to 1 µg/mL (≈ 1 to 2.01 µM) | MIC [2]: 1 µg/mL (≈ 2.01 µM) | MIC [3]: 1 µg/mL (≈ 2.01 µM) | pIC50 [4]: 6.70 | pIC50 [5]: 5.59 | TopoIV/gyrase IC50 ratio [5]: 13 | improvement of TopoIV/gyrase IC50 ratio as compared to dioxane 27 [5]: ~2 fold | MIC [6]: 0.5 µg/mL (≈ 1 µM) | Spontaneous mutation frequency (8X MIC) [7]: 1.35 × 10^−9 (mean, n = 2) | Spontaneous mutation frequency (16X MIC) [7]: 4.49 × 10^−10 (mean, n = 2) | hERG IC50 higher than 31 and 32 ([8]; 24 versus cyclohexane-linked 31 and 32): > 8 fold

COc1ccc2ncc(F)c(CC[C@@]3(O)CO[C@@H]4[C@@H](NCc5ccc(C)cc5)CO[C@@H]43)c2n1 [Compound 25, (3R,3aS,6S,6aR)-3-(2-(3-fluora-6-methoxy-1,5-naphthyridin-4-yl)ethyl)-6-((4-methyllbenzyl)amino)hexahydrofuro[3,2-b]furan-3-ol]
MIC [1, 29]: 1 to 2 µg/mL (≈ 2.21 to 4.41 µM) | MIC [2, 30]: 2 µg/mL (≈ 4.41 µM) | MIC ([3]; CLSI broth microdilution): 2 µg/mL (≈ 4.41 µM) | pIC50 [4, 31]: 6.74 | pIC50 [5, 32]: 5.12 | TopoIV/gyrase IC50 ratio ([5]; S. aureus enzymes): 42 | pIC50 ([8]; read-out: hERG IC50, IonWorks Barracuda): 5.38 | MIC [9]: 8 µg/mL (≈ 17.6 µM) | MIC [10]: 8 µg/mL (≈ 17.6 µM) | MIC [11]: 16 µg/mL (≈ 35.3 µM) | M. tuberculosis ex vivo efficacy (% inhibition at MIC) [12]: 80% | Ex vivo efficacy M. avium (>90% inhibition) [13]: >128 µg/mL | Ex vivo efficacy M. abscessus (>90% inhibition) [14]: >128 µg/mL

COc1ccc2ncc(F)c(CC[C@@]3(O)CO[C@@H]4[C@@H](NCc5ccc(Cl)c(Cl)c5)CO[C@@H]43)c2n1 [Compound 26, (3R,3aS,6S,6aR)-6-((3,4-dichlorobenzyl)amino)-3-(2-(3-fluoro-6-methoxy-1,5-napkthyridin-4-yl)ethyl)hexahydrofuro[3,2-b]-furan-3-ol]
MIC [1, 29]: 0.25 to 0.5 µg/mL (≈ 0.492 to 0.984 µM) | MIC [2, 30]: 0.5 µg/mL (≈ 0.984 µM) | MIC ([3]; CLSI broth microdilution): 0.5 µg/mL (≈ 0.984 µM) | pIC50 [4, 31]: 6.70 | pIC50 [5, 32]: 5.54 | MIC [9]: 2 µg/mL (≈ 3.93 µM) | MIC [10]: 8 µg/mL (≈ 15.7 µM) | MIC [11]: 1 µg/mL (≈ 1.97 µM) | M. tuberculosis ex vivo efficacy (% inhibition at MIC) [12]: 90% | Ex vivo efficacy M. avium (>90% inhibition) [13]: >128 µg/mL | Ex vivo efficacy M. abscessus (>90% inhibition) [14]: 32 µg/mL

COc1ccc2ncc(F)c(CCC3OCC(NCc4ccc5c(c4)OCCO5)CO3)c2n1 (stereo not shown) [Compound 27]
MIC [1, 29]: ≤ 0.25 µg/mL | MIC [2, 30]: 0.125 to 0.25 µg/mL (≈ 0.274 to 0.549 µM) | MIC ([3]; CLSI broth microdilution): 0.25 µg/mL (≈ 0.549 µM) | pIC50 [4, 31]: 7.52 | pIC50 [5, 32]: 6.00 | TopoIV/gyrase IC50 ratio ([5]; S. aureus enzymes): 33 | pIC50 [8]: 5.10 | MIC S. aureus ATCC 29213 (n = 3) [15]: ≤0.06^b μg/mL | MIC MRSADRL-3161 [16]: ≤0.06 µg/mL | MIC Streptococcus pyogenes LSI-1235 [17]: ≤0.06 µg/mL | MIC Streptococcus pneumoniae LSI-4234 [18]: 0.25 µg/mL (≈ 0.549 µM) | MIC Streptococcus pneumoniae LSI-4246 [19]: ≤0.06 µg/mL | MIC Enterococcus faecium DRL-4193 [20]: 0.12^f μg/mL | MIC Enterococcus faecium LSI-3340 [21]: 0.12 µg/mL (≈ 0.263 µM) | MIC Enterococcus faecalis ATCC 29212 [22]: 0.5 µg/mL (≈ 1.1 µM) | MIC Escherichia coli ATCC 25922 (n = 2) [23]: 16 µg/mL (≈ 35.1 µM) | MIC Pseudomonas aeruginosa LSI-2946 [24]: 4 µg/mL (≈ 8.78 µM) | MIC Acinetobacter baumannii LSI-2957 [25]: 2 µg/mL (≈ 4.39 µM) | MIC Klebsiella pneumoniae LSI-2999 [26]: >64 µg/mL | MIC Enterobacter cloacae LSI-2943 [27]: 32 µg/mL (≈ 70.3 µM)

O=C(O)c1cn(C2CC2)c2cc(N3CCNCC3)c(F)cc2c1=O [ciprofloxacin]
MIC Streptococcus pyogenes LSI-1235 [17]: 0.25 µg/mL (≈ 0.754 µM) | MIC Streptococcus pneumoniae LSI-4246 [19]: 0.5 µg/mL (≈ 1.51 µM) | MIC Enterococcus faecium DRL-4193 [20]: 0.25 µg/mL (≈ 0.754 µM) | MIC Enterococcus faecalis ATCC 29212 [22]: 0.5 µg/mL (≈ 1.51 µM) | MIC Escherichia coli ATCC 25922 (n = 2) [23]: ≤0.06 µg/mL | MIC Pseudomonas aeruginosa LSI-2946 [24]: 0.5 µg/mL (≈ 1.51 µM) | MIC Acinetobacter baumannii LSI-2957 [25]: 0.25 µg/mL (≈ 0.754 µM) | MIC Klebsiella pneumoniae LSI-2999 [26]: 0.25 µg/mL (≈ 0.754 µM)

CN[C@H](CC(C)C)C(=O)N[C@H]1C(=O)N[C@@H](CC(N)=O)C(=O)N[C@H]2C(=O)N[C@H]3C(=O)N[C@H](C(=O)N[C@H](C(=O)O)c4cc(O)cc(O)c4-c4cc3ccc4O)[C@H](O)c3ccc(c(Cl)c3)Oc3cc2cc(c3O[C@@H]2O[C@H](CO)[C@@H](O)[C@H](O)[C@H]2O[C@H]2C[C@](C)(N)[C@H](O)[C@H](C)O2)Oc2ccc(cc2Cl)[C@H]1O [vancomycin, reference compound]
MIC [2]: 1 to 2 µg/mL (≈ 0.69 to 1.38 µM) | MIC [3]: 1 to 2 µg/mL (≈ 0.69 to 1.38 µM)
